Measured values from patent US6469120B1, “Water-stabilized organosilane compounds and methods for using the same” (BioShield Technologies, Inc., priority 1997, dated 2002).
Each block holds one compound with its values, some of them ahead of it.

Legend:
[1] = Stabilization of aqueous Dow Corning 5772 siloxane solutions by polyols, clarity monitored over time; assay type: physicochemical
Protocol: However, those skilled in the art will recognize that for practicality and commercial applications, the longer the period for which a stable composition can be achieved the better. Accordingly, a stock of solutions of known concentrations of the stabilizer is prepared in deionized water. A known amount of the solution, and in some cases additional deionized water and the siloxane were mixed in a vial. The vial was sealed with parafilm to prevent evaporation, and stored at ambient temperature.

[2] = no stabilizer; cited from earlier work
[3] = 5% siloxane solution with 0.94% to 19% polyol, ambient temperature

time solution remained clear ([1]; 10% siloxane solution with 0.85% to 17% L-ascorbic acid): at least five
clarity of solution after two days ([1]; as much as 18% siloxane with as little as 0.79% L-ascorbic acid): remained clear
Structure (SMILES): O=C1O[C@H]([C@@H](O)CO)C(O)=C1O [L-ascorbic acid]

Structure (SMILES): CCCCCCCCCCCCCCCCCC[N+](C)(C)CCC[Si](OC)(OC)OC.[Cl-] [3-(trimethoxysilyl)propyl-dimethyloctadecyl ammonium chloride]
time until mixture with water begins to lose effectiveness [2]: four to eight

stabilization of siloxane solution ([1]; tannic acid siloxane solution): not stabilized to any significant degree
Structure (SMILES): O=C(OC[C@H]1O[C@@H](OC(=O)c2cc(O)c(O)c(OC(=O)c3cc(O)c(O)c(O)c3)c2)[C@H](OC(=O)c2cc(O)c(O)c(OC(=O)c3cc(O)c(O)c(O)c3)c2)[C@@H](OC(=O)c2cc(O)c(O)c(OC(=O)c3cc(O)c(O)c(O)c3)c2)[C@@H]1OC(=O)c1cc(O)c(O)c(OC(=O)c2cc(O)c(O)c(O)c2)c1)c1cc(O)c(O)c(OC(=O)c2cc(O)c(O)c(O)c2)c1 [tannic acid]

Structure (SMILES): O=CC=O [glyoxal]
time solution remained clear ([1]; 9% siloxane with 4.1% to 18% glyoxal, aqueous): at least three

time solution remained clear [1, 3]: at least seven
time solution remained clear ([1]; another sample at approximately 5% active siloxane): at least eight
Structure (SMILES): OC[C@H]1O[C@@](CO)(O[C@H]2O[C@H](CO)[C@@H](O)[C@H](O)[C@H]2O)[C@@H](O)[C@@H]1O [sucrose]

time solution remained clear [1, 3]: seven
solubility of polyol in the siloxane solution ([1]; high mannitol concentration, 5% siloxane solution): not completely soluble
Structure (SMILES): OC[C@@H](O)[C@@H](O)[C@H](O)[C@H](O)CO [mannitol]
